# In patent US12077503B2, “Substituted cyclic amides and their use as herbicides” (FMC CORPORATION, priority 2015, dated 2024):
# Columns and labels:
# Test in all cases: Test E preemergence
# Format in all cases: in vivo
# Conditions in all cases: scale 0 to 100
# [1] = system: horseweed (Conyza canadensis)
# Source text: (§1) Seeds of plant species selected from corn (Zea mays), soybean (Glycine max), velvetleaf (Abutilon theophrasti), lambsquarters (Chenopodium album), poinsettia, wild (wild poinsettia, Euphorbia heterophylla), pigweed, palmer (palmer pigweed, Amaranthus palmeri), waterhemp (common waterhemp, Amaranthus rudis), surinam grass (Brachiaria decumbens), crabgrass, large (large crabgrass, Digitaria sangumnalis), crabgrass, Brazil (Brazilian crabgrass, Digitaria horizontalis), Panicum, fall (fall Panicum, Panicum dichotomiflorum), foxtail, giant (giant foxtail, Setaria faberii), foxtail, green (green foxtail, Setaria viridis), goosegrass (Eleusine indica), johnsongrass (Sorghum halepense), ragweed (common ragweed, Ambrosia elatior), barnyardgrass (Echinochloa crus-galli), sandbur (southern sandbur, Cenchrus echinatus), arrowleaf Sida (Sida rhombifolia), ryegrass, Italian (Italian ryegrass, Lolium multiflorum), dayflower, VA (Virginia dayflower, Commelina virginica), field bindweed (Convolvulus arvensis), morningglory (Ipomoea coccinea), nightshade (eastern black nightshade, Solanum ptycanthum), Kochia (Kochia scoparia), nutsedge, yellow (yellow nutsedge, Cyperus esculentus), horseweed (Conyza canadensis), and beggarticks (hairy beggarticks, Bidens pilosa), were planted into a silt loam soil and treated preemergence with test chemicals formulated in a non-phytotoxic solvent mixture which included a surfactant.
# (§2) At the same time, plants selected from these crop and weed species were planted in pots containing Sunshine Redi-Earth planting medium comprising spaghnum peat moss, vermiculite, starter nutrients and dolomitic limestone and treated with postemergence applications of a test chemical formulated in the same manner. Plants ranged in height from 2 to 18 cm (1- to 4-leaf stage) for postemergence treatments. Treated plants and controls were maintained in a greenhouse for 14 to 21 d, after which time all species were compared to controls and visually evaluated. Plant response ratings, summarized in Table E, are based on a scale of 0 to 100 where 0 is no effect and 100 is complete control. A dash (-) response means no test result.
# [2] = system: arrowleaf Sida (Sida rhombifolia)
# Source text: as §1, §2
# [3] = system: morningglory (Ipomoea coccinea)
# Source text: as §1, §2
# [4] = system: beggarticks (hairy beggarticks, Bidens pilosa)
# Source text: as §1, §2
# corn (Zea mays) = system: corn (Zea mays)
# Source text: as §1, §2
# [5] = system: ryegrass, Italian (Italian ryegrass, Lolium multiflorum)
# Source text: as §1, §2
# [6] = system: sandbur (southern sandbur, Cenchrus echinatus)
# Source text: as §1, §2
# Kochia (Kochia scoparia) = system: Kochia (Kochia scoparia)
# Source text: as §1, §2
# [7] = system: nightshade (eastern black nightshade, Solanum ptycanthum)
# Source text: as §1, §2
# [8] = system: foxtail, giant (giant foxtail, Setaria faberii)
# Source text: as §1, §2
# [9] = system: ragweed (common ragweed, Ambrosia elatior)
# Source text: as §1, §2
# [10] = system: crabgrass, large (large crabgrass, Digitaria sangumnalis)
# Source text: as §1, §2
# [11] = system: waterhemp (common waterhemp, Amaranthus rudis)
# Source text: as §1, §2
# [12] = system: surinam grass (Brachiaria decumbens)
# Source text: as §1, §2
# [13] = system: dayflower, VA (Virginia dayflower, Commelina virginica)
# Source text: as §1, §2
# [14] = system: field bindweed (Convolvulus arvensis)
# Source text: as §1, §2
# [15] = system: foxtail, green (green foxtail, Setaria viridis)
# Source text: as §1, §2
# [16] = system: velvetleaf (Abutilon theophrasti)
# Source text: as §1, §2
# [17] = system: lambsquarters (Chenopodium album)
# Source text: as §1, §2
# [18] = system: Panicum, fall (fall Panicum, Panicum dichotomiflorum)
# Source text: as §1, §2
# [19] = system: pigweed, palmer (palmer pigweed, Amaranthus palmeri)
# Source text: as §1, §2
compound,measurement,setting,value
CN1CC(c2cccc(C(F)(F)F)c2)C(C(=O)Nc2cccc(F)c2F)C1=O (stereo not shown) [Compound 636],Plant response rating: Horseweed,[1]; 31 g ai/ha,0
same,Plant response rating: Horseweed,[1]; 62 g ai/ha,90
same,Plant response rating: Horseweed,[1]; 125 g ai/ha,95
same,Plant response rating: Horseweed,[1]; 250 g ai/ha,95
same,Plant response rating: Arrowleaf Sida,[2]; 31 g ai/ha,35
same,Plant response rating: Arrowleaf Sida,[2]; 62 g ai/ha,65
same,Plant response rating: Arrowleaf Sida,[2]; 125 g ai/ha,80
same,Plant response rating: Arrowleaf Sida,[2]; 250 g ai/ha,90
same,Plant response rating: Morningglory,[3]; 31 g ai/ha,0
same,Plant response rating: Morningglory,[3]; 62 g ai/ha,0
same,Plant response rating: Morningglory,[3]; 125 g ai/ha,0
same,Plant response rating: Morningglory,[3]; 250 g ai/ha,0
same,Plant response rating: Beggarticks,[4]; 31 g ai/ha,0
same,Plant response rating: Beggarticks,[4]; 62 g ai/ha,0
same,Plant response rating: Beggarticks,[4]; 125 g ai/ha,0
same,Plant response rating: Beggarticks,[4]; 250 g ai/ha,0
same,Plant response rating: Corn,corn (Zea mays); 31 g ai/ha,65
same,Plant response rating: Corn,corn (Zea mays); 62 g ai/ha,70
same,Plant response rating: Corn,corn (Zea mays); 125 g ai/ha,80
same,Plant response rating: Corn,corn (Zea mays); 250 g ai/ha,80
same,"Plant response rating: Ryegrass, Italian",[5]; 31 g ai/ha,40
same,"Plant response rating: Ryegrass, Italian",[5]; 62 g ai/ha,65
same,"Plant response rating: Ryegrass, Italian",[5]; 125 g ai/ha,95
same,"Plant response rating: Ryegrass, Italian",[5]; 250 g ai/ha,95
same,Plant response rating: Sandbur,[6]; 31 g ai/ha,90
same,Plant response rating: Sandbur,[6]; 62 g ai/ha,90
same,Plant response rating: Sandbur,[6]; 125 g ai/ha,90
same,Plant response rating: Sandbur,[6]; 250 g ai/ha,95
same,Plant response rating: Kochia,Kochia (Kochia scoparia); 31 g ai/ha,85
same,Plant response rating: Kochia,Kochia (Kochia scoparia); 62 g ai/ha,90
same,Plant response rating: Kochia,Kochia (Kochia scoparia); 125 g ai/ha,90
same,Plant response rating: Kochia,Kochia (Kochia scoparia); 250 g ai/ha,95
same,Plant response rating: Nightshade,[7]; 31 g ai/ha,0
same,Plant response rating: Nightshade,[7]; 62 g ai/ha,0
same,Plant response rating: Nightshade,[7]; 125 g ai/ha,40
same,Plant response rating: Nightshade,[7]; 250 g ai/ha,50
same,"Plant response rating: Foxtail, Giant",[8]; 31 g ai/ha,95
same,"Plant response rating: Foxtail, Giant",[8]; 62 g ai/ha,95
same,"Plant response rating: Foxtail, Giant",[8]; 125 g ai/ha,95
same,"Plant response rating: Foxtail, Giant",[8]; 250 g ai/ha,95
same,Plant response rating: Ragweed,[9]; 31 g ai/ha,0
same,Plant response rating: Ragweed,[9]; 250 g ai/ha,0
same,"Plant response rating: Crabgrass, Large",[10]; 31 g ai/ha,98
same,"Plant response rating: Crabgrass, Large",[10]; 62 g ai/ha,98
same,"Plant response rating: Crabgrass, Large",[10]; 125 g ai/ha,98
same,"Plant response rating: Crabgrass, Large",[10]; 250 g ai/ha,98
same,Plant response rating: Waterhemp,[11]; 31 g ai/ha,25
same,Plant response rating: Waterhemp,[11]; 62 g ai/ha,80
same,Plant response rating: Waterhemp,[11]; 125 g ai/ha,70
same,Plant response rating: Waterhemp,[11]; 250 g ai/ha,80
same,Plant response rating: Surinam Grass,[12]; 31 g ai/ha,40
same,Plant response rating: Surinam Grass,[12]; 62 g ai/ha,90
same,Plant response rating: Surinam Grass,[12]; 125 g ai/ha,95
same,Plant response rating: Surinam Grass,[12]; 250 g ai/ha,95
same,"Plant response rating: Dayflower, VA",[13]; 31 g ai/ha,0
same,"Plant response rating: Dayflower, VA",[13]; 62 g ai/ha,0
same,"Plant response rating: Dayflower, VA",[13]; 125 g ai/ha,35
same,"Plant response rating: Dayflower, VA",[13]; 250 g ai/ha,65
same,Plant response rating: Field Bindweed,[14]; 31 g ai/ha,0
same,Plant response rating: Field Bindweed,[14]; 62 g ai/ha,75
same,Plant response rating: Field Bindweed,[14]; 125 g ai/ha,80
same,Plant response rating: Field Bindweed,[14]; 250 g ai/ha,70
same,"Plant response rating: Foxtail, Green",[15]; 31 g ai/ha,95
same,"Plant response rating: Foxtail, Green",[15]; 62 g ai/ha,95
same,"Plant response rating: Foxtail, Green",[15]; 125 g ai/ha,95
same,"Plant response rating: Foxtail, Green",[15]; 250 g ai/ha,98
same,Plant response rating: Velvetleaf,[16]; 31 g ai/ha,20
same,Plant response rating: Velvetleaf,[16]; 62 g ai/ha,35
same,Plant response rating: Velvetleaf,[16]; 125 g ai/ha,60
same,Plant response rating: Velvetleaf,[16]; 250 g ai/ha,40
same,Plant response rating: Lambsquarters,[17]; 31 g ai/ha,90
same,Plant response rating: Lambsquarters,[17]; 62 g ai/ha,90
same,Plant response rating: Lambsquarters,[17]; 125 g ai/ha,90
same,Plant response rating: Lambsquarters,[17]; 250 g ai/ha,90
same,"Plant response rating: Panicum, Fall",[18]; 31 g ai/ha,90
same,"Plant response rating: Panicum, Fall",[18]; 62 g ai/ha,90
same,"Plant response rating: Panicum, Fall",[18]; 125 g ai/ha,100
same,"Plant response rating: Panicum, Fall",[18]; 250 g ai/ha,90
same,"Plant response rating: Pigweed, Palmer",[19]; 31 g ai/ha,0
same,"Plant response rating: Pigweed, Palmer",[19]; 62 g ai/ha,10
same,"Plant response rating: Pigweed, Palmer",[19]; 125 g ai/ha,80
same,"Plant response rating: Pigweed, Palmer",[19]; 250 g ai/ha,90
